From patent publication US20080119439A1, “Treatment and prevention of intestinal fibrosis” (Bayer Schering Pharma Aktiengesellschaft, priority 2006, published 2008) come the findings set out here.

SMILES strings stand for the structures.

Assay [1] deals with chronic model of colon inflammation (TNBS-induced chronic colitis). In words: Study 1: chronic TNBS colitis, lipoxin A4 analog given daily together with TNBS. Format: in vivo, BALB/c mice. On the procedure:
(§1) A model of chronic inflammation induced by 7 week administration of 2,4,6-trinitrobenzenesulfonic acid (TNBS) in escalating manner was used in these studies. This model results in inflammation-driven fibrosis that associates with significant increase in intestinal content of collagen.
(§2) The induction of chronic colitis was performed according the protocol proposed by Lawrance et al, Gastroenterology (2003) 125:1750-1761. Six- to eight-week-old female mice of the BALB/c strain were obtained from Charles River (Breeding Laboratories, Monza, Italy).
In a first in vivo experiment, BALB/c mice of the control group (n=7) received weekly 0.1 mL of saline solution by intracolonic injections. Mice of the TNBS group (n=15) were treated for 8 weeks with escalating doses (0.5 to 1.25 mg, with a 0.25 mg increase every two weeks) of TNBS in 30% ethanol by intracolonic injections at weekly intervals. Mice of TNBS+lipoxin A4 analog group (n=15) received the same weekly TNBS administration as the TNBS-only group plus 1 mg/kg of the lipoxin A4 analog daily by intragastric administration. Mice were examined weekly for weight loss, diarrhea and rectal bleeding. Two days after the last administration of TNBS, mice were killed and colons were removed and examined. The macroscopic appearance was analyzed considering the presence of indurations, edema, thickness and evidence of mucosal hemorrhage.
Neutrophil infiltration in the colon was monitored by measuring MPO activity using a spectrophotometric assay with trimethylbenzidine (TMB) as a substrate according to a previously published method. Activity is expressed as U per mg protein.
For histologic examination, sections of the proximal, middle and distal colon from each animal were fixed in 10% formalin, embedded in paraffin, sectioned, and stained with haematoxylin and eosin (H&E) or Sirius Red. For the latter, sections were incubated for 30 minutes in 0.1% Sirius Red F3B containing saturated picric acid and 0.1% fast green. After rising twice with distilled water, sections were briefly dehydrated with 70% ethanol.
Images from colon sections were acquired with a BX60 microscope (Olympus Co., Rome, Italy), digitalized using a SPOT-2 camera (Diagnostic Instruments Inc., Sterling Heights, Mich.) with a resolution of 1315×1033 pixels and analyzed using a computerized image analysis system (Image Acquisition System Ver.005, Delta Sistemi, Rome, Italy).
Sections from the colon of each animal were examined in a blinded fashion. The degree of the inflammation and fibrosis was scored accordingly with an established method (Lawrance et al., supra; Neurath et al., J. Exp. Med. (1995) 182:1281-1290). Briefly, inflammation was scored as absent, mild, moderate or severe depending on the density and extent of inflammatory infiltrates, loss of goblet cells, and bowel wall thickening. Also, the fibrosis was scored as absent, mild, moderate or severe on the basis of the density and extent of the Sirius red-positive connective tissue staining, compared with the water-control mice.
Quantification of the expression of mouse gene in colon tissues and intestinal fibroblasts was performed by quantitative real-time polymerase chain reaction (RT-PCR) (Heid C A 1996), using sense and antisense primers indicated in Table 1. All PCR primers were designed using PRIMER3-OUTPUT software using published sequence data from the NCBI database. Total RNA was isolated (TRIzol reagent, Invitrogen srl, Milan, Italy) from specimens taken from distal colons and intestinal fibroblasts. One microgram of purified RNA was treated with Dnasel for 15 minutes at room temperature, followed by incubation at 95° C. for 5 minutes in the presence of 2.5 mmol/L EDTA. The RNA was reverse-transcribed with Superscript III (Invitrogen srl, Milan, Italy) in 20 μL reaction volume using random primers. […]

Assay [2] concerns chronic model of colon inflammation (established TNBS colitis). In words: Study 2: established TNBS colitis, lipoxin A4 analog dosed orally after the third week of TNBS. Format: in vivo, BALB/c mice. The settings on record: 1 mg/kg orally, starting on week 3 after TNBS administration. On the procedure:
as §1, §2
To test the influence of lipoxin analogs in the inflammatory and fibrotic response in animals with established colitis, in a second in vivo study lipoxin A4 analog (1 mg/kg) was dosed orally starting after the third week of administration of TNBS (same protocol as described above). Mice were examined weekly for weight loss, diarrhea and rectal bleeding. Two days after the last administration of TNBS, mice were killed and colons were removed and examined. The macroscopic appearance was analyzed considering the presence of indurations, edema, thickness and evidence of mucosal hemorrhage.
Neutrophil infiltration in the colon was monitored by measuring MPO activity using a spectrophotometric assay with trimethylbenzidine (TMB) as a substrate according to a previously published method. Activity is expressed as U per mg protein. […]

Where [3] appears, read: 1 mg/kg daily intragastric, seven weeks, quantitative RT-PCR.

As to `O=C([O-])COC[C@H](O)[C@H](O)/C=C/C=C/C#C/C=C/[C@H](O)COc1ccc(F)cc1.[Na+]` [lipoxin A4 analog, sodium 2-((2S,3R,4E,6E,10E,12S)-13-(4-fluorophenoxy)-2,3,12-trihydroxytrideca-4,6,10-trien-8-ynyloxy)acetate], the “colon fibrosis development, morphometric analysis of Sirius red-stained colon” value in assay [1] (1 mg/kg daily intragastric, administered for seven weeks, vs TNBS alone) is given as “significantly attenuated”. Further, in assay [1] (setting [3]), the “colon expression of TGFβ mRNA (marker of colon fibrosis)” value was “significantly attenuated”, the “colon expression of fibronectin mRNA (marker of colon fibrosis)” value is given as “significantly attenuated”, the “colon expression of α-SMA mRNA (marker of colon fibrosis)” value is listed as “significantly attenuated” and the “colon expression of αI collagen mRNA (marker of colon fibrosis)” value is reported as “significantly attenuated”. The colon inflammation entry in assay [1] (administered orally) was “attenuated”. Also, the “TGBβ protein in colon” value in assay [1] (in comparison to mice administered TNBS alone) is reported as “reduced”. Also, the “efficacy when administered in a therapeutic manner (inflammatory and fibrotic response)” value in assay [2] was “effective”.
